Measurements as given in patent publication US9040713B2, “Methods of managing blood sugar levels and compositions related thereto” (EMORY UNIVERSITY, priority 2010, dated 2015).
“Also recorded” adds a separate entry of the source. Values belong to the compound of their own block, whether it stands above or below them.

Experiments:
[1] = target: T1, GST-IRTK (Homo sapiens, UniProt P06213); experiment: Partial proteolysis; type: binding; conditions: compound 50 μM or ATP-γ-S 5 μM; limited trypsin (or chymotrypsin) digestion
T1 construct: GST-tagged IRTK (GST-IRTK, a.a. 1011-1382); purchased Invitrogen
Procedure: 200 ng GST-IRTK was subjected to limited trypsin digestion in the presence or absence of 50 μM compound with 50 mM tris-HCL (pH8.2) and 20 mM CacCl2. The sample was separated on a SDS-polyacrylamide gel and stained by silver.
Several small molecules bind to the intracellular kinase domain of IR (IRTK) and provoke its activation. DDN might also interact with the IRTK to activate IR. To test this possibility, an UV-absorption spectra analysis was performed using recombinant IRTK. While the GST-tagged IRTK (GST-IRTK, a.a. 1011-1382) had no absorption from 200 nm to 800 nm, addition of DDN, but not its structural related analogue naptho[2,3-d]thiazole-4,9-dione-2-[(4-chlorophenyl)amino] […] Partial proteolysis analysis was also performed to confirm the DDN/IRTK interaction. Recombinant GST-tagged IRTK was incubated with either DMSO or DDN, followed by limited trypsin digestions. In DMSO treatment, GST-IRTK was digested into several smaller fragments of various molecular weights. […] Whereas a band of ˜37 kDa presented strongly in the ATP-γ-S incubated IRTK, a band of ˜30 kDa was found in the control samples but attenuated in the ATP-γ-S-treated sample.
To evaluate if 4524-E7 directly binds to the IR kinase domain, a partial proteolysis assay was performed with recombinant IRTK domain using trypsin or chymotrypsin, which was used before to characterize the interaction between IR and its small molecular ligand DAQ B1. Recombinant GST-tagged IRTK with either DMSO, 50 μM 4524-E7 or ATP-γ-S, were incubated and followed by limited trypsin or chymotrypsin digestion. Under DMSO treatment, GST-IRTK was quickly digested by both trypsin and chymotrypsin into several small fragments with various molecular weights (FIG. 10B). […] To test whether 4524-E7 selectively elevates IR kinase activities, an in vitro IR, IGFR, and EGFR kinase assays were performed using histone as the substrate.

[2] = target: T1, GST-IRTK; experiment: IR in vitro kinase assay (histone H2B phosphorylation); type: biochemical; conditions: different concentrations of compound
Procedure: Parental CHO cells were used as a negative control (bottom panel). The fluorescence-labeled cells were analyzed on flow cytometry. (B) DDN binds to IRTK. UV-visible spectra were scanned from 200 to 800 nm for IRTK fragment in the presence of DDN or its analogue. When DDN binds to IRTK, it elicits the absorption alteration at 560 and 602 nm. (C) DDN protects IRTK from proteolysis. GST-IRTK was subjected to limited trypsin digestion in the presence of DDN (50 μM), ATP-γ-S (5 μM) or both. The reaction mixture was resolved by SDS-PAGE, followed by silver staining (D) DDN increases IRTK activity in vitro.
Parental CHO cells were used as a negative control (Bottom panel). The fluorescence-labeled cells were analyzed on flow cytometry. (B) 4524-E7 protects IRTK from proteolysis. GST-IRTK was subjected to limited trypsin or chymotrypsin digestion in the presence of 4524-E7 (50 μM), ATPyS (5 μM) or both at 37° C. for 5 min. The reaction mixture was resolved by SDS-PAGE, followed by silver staining Cleaved fragments were asterisked. (C) 4524-E7 increases IRTK activity in vitro. Recombinant GST-IRTK, GST-IGFRTK, and GST-EGFRTK were incubated with different concentrations of 4524-E7 or 10 μM 2—NH2-NQ and the kinase activity was examined by monitoring the phosphorylation of histone H2B. (E) In vitro kinase activity of various IRTK/IGF-1R kinase hybrids. The GFP-tagged kinases were expressed in HEK293, immunoprecipitated and incubated with different concentrations of 4524-E7 as indicated. […] Expressions of the kinases were also verified (lower panel).
Recombinant GST-IRTK was incubate with 50 mM tris-HCl (pH7.4), 10 mM MgCl2, and 50 μM ATP with different concentration of compound for 15 min at 25° C. Histone H2B (0.35 μg/ml) and [γ32P]ATP (0.25 μCi/ul) were added and the samples were further incubated for 10 min. The sample was separated on a SDS-polyacrylamide gel and autoradiographed.

[3] = target: T2, IR (Homo sapiens, UniProt P06213); experiment: Cell-based ELISA of IR tyrosine phosphorylation in CHO-IR cells; set-up: expressed in transfected cells; host or cells: CHO (CHO-IR, gift from Dr. Nicholas Webster, UCSD); conditions: 5 μM, ELISA
Procedure: A cell-based screening assay was developed with Chinese hamster ovary cells stably transfected with IR (CHO-IR) by using an ELISA to determine the IR tyrosine phosphorylation. […] Other 1,4-Napthoquinones that are structurally related to 4524-E7 were evaluated.
CHO-IR cells were seeded in a 96-well plate at 15,000 cells per well in […] of 0.1% FBS medium with 0.1% FBS. […] Cells were lysed, and phosphorylated receptors were captured with pY20 immobilized on ELISA plates. Bound receptors were washed, then detected using an anti-IR beta antibody, followed by an horseradish peroxidase-conjugated secondary antibody and colorimetric detection with 3,3′,5,5′-tetramethylbenzidine.
(§1) A cell-based ELISA assay was developed with an IR stably transfected Chinese Hamster Ovary (CHO-IR) cell line. […] The cell lysates were subjected to the sandwich ELISA using immobilized anti-phosphotyrosine antibody and anti-IR antibody.

[4] = target: IR (Mus musculus, UniProt P15208); experiment: IR phosphorylation and downstream signaling in mouse tissues; type: in vivo; conditions: C57BL/6J mice, 20 mg/kg oral
Procedure: (§2) (A) DDN reduces blood glucose in C57BL/6J mice. […] Blood glucose was monitored before and after dosing at various time points as indicated (*: P<0.05, **: P<0.01; ***: P<0.001, n=10-13, Two-way ANOVA vs vehicle). (B) DDN provokes IR phosphorylation and its downstream signaling in C57BL/6J mice. Three month-old C57BL/6J mice were starved for 12 h and then orally administrated with vehicle (0.5% methylcellulose), DDN (20 mg/kg) or 2NH2-NQ (20 mg/kg). Cell lysates were prepared from liver and muscle tissues collected at 3, 4, and 5 h after drug administration and analyzed by immunoprecipitation and immunoblotting. (C) DDN quickly activates IR phosphorylation and its downstream signaling. Three-month-old C57BL/6J mice were starved for 12 h and then injected with vehicle, 5 mg/kg DDN or 5 mg/kg 2NH2-NQ through vena cava. After 5 min, the liver was collected and analyzed by immunobloting using specific antibodies.
Three-month-old mice were starved for 12 h and then orally administrated with vehicle (0.5% methylcellulose) or DDN (5 mg/kg). Cell lysates were prepared from liver and muscle tissues collected at 1 and 2 h after drug administration and analyzed by immunoprecipitation and immunoblotting. […] Three-month-old mice were starved for 12 h and then orally administrated with vehicle (0.5% methylcellulose) or DDN (5 mg/kg). Cell lysates were prepared from liver and muscle tissues collected at 1 and 2 h after drug administration and analyzed by immunoprecipitation and immunoblotting. (C) Hypoglycemic function of DDN in db/db mice. The animals were starved for 12 h and then orally injected with vehicle (0.5% methylcellulose) or DDN (5 mg/kg). […] Blood glucose was monitored before and after drug administration at 1-hour intervals (*: P<0.05, **: P<0.01, n=5, Two-way ANOVA vs vehicle). (D) DDN improves the glucose tolerance in ob/ob mice. The animals were starved for 12 h and then orally dosed with vehicle (0.5% methylcellulose) or DDN (5 mg/kg). […] A bonus of glucose (2 gm/kg) was injected intraperitoneally 1 hour later. Blood glucose was measured at 30-min intervals (*: P<0.05, **:P<0.01, n=5, Two-way ANOVA vs vehicle control).
(§3) (A) 4524-E7 provokes IR phosphorylation in various tissues of mice. Three-month-old C57BL/6J mice were starved for 12 h and then dosed with vehicle (0.5% methylcellulose) or 4524-E7 (20 mg/kg). Cell lysates from liver, muscle, and WAT were prepared at 3, 4, and 5 h after drug administration and analyzed by immunoblotting. (B) Basal and insulin-stimulated hepatic glucose production rates were measured by hyperinsulinemic-euglycemic clamp. […] (C) Hypoglycemic effect of 4524-E7 in C57BL/6J mice. C57BL/6J mice were starved for 12 h and then orally administrated with vehicle (0.5% methylcellulose) or 4524-E7 (5 mg/kg). Blood glucose was monitored at different time points as indicated (n=8, *: P<0.05, two-way ANOVA). (D) Hypoglycemic effect in db/db mice. db/db mice were starved for 12 h and then orally injected with vehicle (0.5% methylcellulose) or 4524-E7 (5 mg/kg). Blood glucose was monitored at different time points as indicated (n=5, *: P<0.05, two-way ANOVA). (E) Glucose tolerance test in ob/ob mice. The mice were starved for 12 hours and then orally administrated with vehicle or 4524-E7 (5 mg/kg). A bonus of glucose (2 gm/kg) was injected intraperitoneally 1 hour later. Blood glucose was then measured at 30 min intervals (n=13, *: P<0.05; **: P<0.01, two-way ANOVA).
After a 12 h fasting, C57BL/6J mice were orally administrated with 20 mg/kg of compound in 0.5% methylcellulose, and sacrificed at 3 h, 4 h and 5 h following compound administration. Fat tissues were dissected quickly and frozen on dry ice. Fat lysates were prepared and analyzed by Western blotting.

[5] = test system: C57BL/6J mice; experiment: Blood glucose level test in C57BL/6J mice; type: in vivo, mouse; conditions: 20 mg/kg oral, 12 h starved
Procedure: as §2, §3
After a 12 h fasting, C57B5L/6J and db/db mice were bled from the tail vein for a baseline measurement with a glucometer (Accu-Chek; Roche Diagnostics, Indianapolis, Ind.). Afterward, animals were orally administered 5 mg/kg compound in 0.5% methylcellulose through a feeding needle. Blood glucose levels were measured at hourly intervals over 5 h.

[6] = target: T2, IR; experiment: Immunoblotting of IR phosphorylation and downstream signaling in CHO-IR cells; type: cell-based; set-up: expressed in transfected cells; host or cells: CHO (CHO-IR, gift from Dr. Nicholas Webster, UCSD); conditions: 5 μM, 30 min
Procedure: The cell lysates were analyzed by immunoblotting with anti-phospho-IR antibodies, or immunoprecipitated by PY20 and analyzed using anti-IR and anti-IRS-1, respectively. […] The cell lysates were analyzed by immunoblotting with anti-pIGF-1R and anti-pEGFR. […]
as §1

T1 sequence (P06213 1011-1382): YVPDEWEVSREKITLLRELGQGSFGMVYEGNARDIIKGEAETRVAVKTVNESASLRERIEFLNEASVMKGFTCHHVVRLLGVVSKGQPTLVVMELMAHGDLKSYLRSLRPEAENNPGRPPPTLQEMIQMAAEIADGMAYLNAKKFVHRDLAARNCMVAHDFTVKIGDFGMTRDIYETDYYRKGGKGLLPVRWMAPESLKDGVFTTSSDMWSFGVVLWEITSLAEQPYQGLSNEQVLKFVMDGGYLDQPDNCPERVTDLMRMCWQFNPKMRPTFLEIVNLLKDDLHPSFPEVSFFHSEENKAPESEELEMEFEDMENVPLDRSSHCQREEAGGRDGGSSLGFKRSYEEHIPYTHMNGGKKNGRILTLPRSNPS
T2 sequence (P06213 763-1382 limits assumed): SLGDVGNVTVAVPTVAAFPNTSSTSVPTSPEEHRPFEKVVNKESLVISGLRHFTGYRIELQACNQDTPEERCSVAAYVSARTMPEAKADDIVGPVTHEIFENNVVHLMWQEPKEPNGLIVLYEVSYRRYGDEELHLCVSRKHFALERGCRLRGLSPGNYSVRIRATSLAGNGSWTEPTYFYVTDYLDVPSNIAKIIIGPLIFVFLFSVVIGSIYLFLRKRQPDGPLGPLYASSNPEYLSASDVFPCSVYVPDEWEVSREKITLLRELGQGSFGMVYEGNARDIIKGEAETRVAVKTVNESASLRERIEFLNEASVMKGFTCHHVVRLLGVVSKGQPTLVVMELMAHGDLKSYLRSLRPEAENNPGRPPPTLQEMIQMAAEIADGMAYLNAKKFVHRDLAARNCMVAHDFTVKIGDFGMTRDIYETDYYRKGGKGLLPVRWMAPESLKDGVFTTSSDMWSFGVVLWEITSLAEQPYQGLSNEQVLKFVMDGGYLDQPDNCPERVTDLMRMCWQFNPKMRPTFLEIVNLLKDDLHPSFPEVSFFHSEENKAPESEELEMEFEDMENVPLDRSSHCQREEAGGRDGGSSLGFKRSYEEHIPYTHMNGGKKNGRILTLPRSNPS
T2 sequence (P06213 28-758 limits assumed): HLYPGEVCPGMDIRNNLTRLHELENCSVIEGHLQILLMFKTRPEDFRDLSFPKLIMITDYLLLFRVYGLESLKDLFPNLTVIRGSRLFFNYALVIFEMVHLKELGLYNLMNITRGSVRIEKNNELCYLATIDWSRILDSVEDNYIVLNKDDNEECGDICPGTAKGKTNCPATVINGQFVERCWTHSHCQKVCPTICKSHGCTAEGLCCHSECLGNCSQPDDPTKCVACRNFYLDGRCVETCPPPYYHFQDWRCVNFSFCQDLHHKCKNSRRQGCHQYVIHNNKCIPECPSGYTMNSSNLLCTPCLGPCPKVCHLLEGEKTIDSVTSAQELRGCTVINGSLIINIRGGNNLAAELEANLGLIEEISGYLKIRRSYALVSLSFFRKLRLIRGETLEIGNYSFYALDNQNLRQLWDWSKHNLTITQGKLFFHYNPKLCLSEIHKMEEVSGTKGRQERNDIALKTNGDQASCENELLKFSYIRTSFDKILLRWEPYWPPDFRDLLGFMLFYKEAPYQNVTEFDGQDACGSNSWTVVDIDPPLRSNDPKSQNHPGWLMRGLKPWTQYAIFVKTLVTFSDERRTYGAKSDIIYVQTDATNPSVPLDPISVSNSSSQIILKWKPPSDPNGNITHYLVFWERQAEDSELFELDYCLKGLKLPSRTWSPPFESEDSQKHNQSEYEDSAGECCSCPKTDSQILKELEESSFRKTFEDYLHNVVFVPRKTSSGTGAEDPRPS
Chain of IR (Mus musculus, UniProt P15208) (P15208 28-1372): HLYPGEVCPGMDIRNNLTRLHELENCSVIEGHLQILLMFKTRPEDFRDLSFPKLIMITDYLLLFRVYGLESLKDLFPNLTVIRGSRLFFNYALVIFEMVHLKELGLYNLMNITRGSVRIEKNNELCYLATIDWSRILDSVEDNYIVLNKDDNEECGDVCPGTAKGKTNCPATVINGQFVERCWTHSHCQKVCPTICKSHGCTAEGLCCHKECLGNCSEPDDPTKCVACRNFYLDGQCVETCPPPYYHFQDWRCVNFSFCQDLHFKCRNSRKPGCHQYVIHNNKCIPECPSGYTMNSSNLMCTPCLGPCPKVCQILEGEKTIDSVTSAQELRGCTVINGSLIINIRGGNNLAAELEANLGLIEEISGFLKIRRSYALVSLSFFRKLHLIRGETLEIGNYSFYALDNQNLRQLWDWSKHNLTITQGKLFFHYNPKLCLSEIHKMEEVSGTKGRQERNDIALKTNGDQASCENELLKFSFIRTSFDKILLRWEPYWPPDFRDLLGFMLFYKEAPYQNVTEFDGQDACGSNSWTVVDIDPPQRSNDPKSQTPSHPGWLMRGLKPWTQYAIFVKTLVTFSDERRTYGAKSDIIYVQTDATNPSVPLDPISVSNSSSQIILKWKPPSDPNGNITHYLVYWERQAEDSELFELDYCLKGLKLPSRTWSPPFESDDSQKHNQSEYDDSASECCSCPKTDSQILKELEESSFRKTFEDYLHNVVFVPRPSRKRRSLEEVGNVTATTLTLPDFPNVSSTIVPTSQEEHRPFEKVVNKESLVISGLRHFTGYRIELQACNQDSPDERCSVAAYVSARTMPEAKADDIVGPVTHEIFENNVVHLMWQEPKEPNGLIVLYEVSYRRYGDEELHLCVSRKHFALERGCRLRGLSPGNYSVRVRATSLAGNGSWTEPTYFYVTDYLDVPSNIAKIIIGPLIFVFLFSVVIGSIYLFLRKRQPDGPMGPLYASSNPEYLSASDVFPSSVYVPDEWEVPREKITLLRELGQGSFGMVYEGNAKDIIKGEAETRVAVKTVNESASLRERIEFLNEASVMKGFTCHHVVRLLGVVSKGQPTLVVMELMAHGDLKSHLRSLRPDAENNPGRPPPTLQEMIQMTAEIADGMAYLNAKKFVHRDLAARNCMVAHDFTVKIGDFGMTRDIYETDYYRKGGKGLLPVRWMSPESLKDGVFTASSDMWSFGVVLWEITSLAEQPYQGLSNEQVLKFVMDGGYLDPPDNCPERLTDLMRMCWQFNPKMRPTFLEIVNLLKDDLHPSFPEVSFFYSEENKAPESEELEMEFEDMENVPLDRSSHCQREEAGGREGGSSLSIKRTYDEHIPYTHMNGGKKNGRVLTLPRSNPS

Compound: Nc1ncnc2c1ncn2[C@@H]1O[C@H](COP(=O)(O)OP(=O)(O)OP(O)(O)=S)[C@@H](O)[C@H]1O [ATP-γ-S, reference compound]
protection of IRTK from proteolysis [1]: altered the proteolysis pattern; also recorded: digestion pattern was altered

Compound: NC1=CC(=O)c2ccccc2C1=O [2NH2-NQ, 2-amino-1,4-naphthoquinone, reference compound]
IRTK kinase activity (histone H2B phosphorylation) [2]: inactive analogue | IR phosphorylation ([3]; 15 min, CHO-IR cells): not active | IR and IRS-1 tyrosine phosphorylation in liver and muscle [4]: Neither IR nor IRS phosphorylations were increased | blood glucose as compared to vehicle control [5]: had no effect

IR phosphorylation, 4524-E7 derivatives ([3]; 30 min, compared to the parental compound): improved activity | IR tyrosine phosphorylation [6]: triggered IR tyrosine phosphorylation
Compound: O=C1c2ccccc2C(=O)c2sc(Nc3ccc(Cl)cc3Cl)nc21 [compound 7, 2-((2,4-dichlorophenyl)amino)naphtho[2,3-d]thiazole-4,9-dione]
